Data: patent US8063104B2, “Guanidine derivatives as inhibitors of DDAH” (UCL Business PLC, priority 2004, dated 2011)
Values joined by “and” are separate entries in the source; they are usually repeats but may differ in a detail not shown here. Equal values may be shown once. Read-outs that look alike come from different tables or passages of the source.

Tests used:
[1] = tested on: eNOS; experiment: eNOS assay ([14C]arginine conversion); assay type: biochemical; conditions: eNOS activity
Description: Compounds to be tested were added to NOS assay buffer (HEPES 50 mM pH 7.2, FAD 5 μM, FMN 5 μM, BH4 10 μM, NADPH 1 mM, DTT 0.5 mM, CaCl2 1 mM, MgCl2 1 mM, calmodulin 50 nM, [^14C] arginine 100 μM) in a final volume of 100 μl and the reaction was initiated by addition of eNOS (eNOS 3.3. U/reaction, Alexis Biochemicals). Reactions were incubated for 1 h at 37° C. and the reaction was terminated by the addition of Dowex pH 5.5 (0.85 ml) to each tube. Tubes were vortexed and microfuged <12000 g, 5 min. 100 μl of the Dowex supernatant was added to 5 ml scintillation cocktail and was counted in a scintillation counter (Hewlett Packard). The compounds were tested at 1 mM and 0.1 mM concentrations. Activity is expressed as % of control where control contained no inhibitor, n=4. The DDAH inhibitors of the present invention tested had no significant effect on eNOS activity.

[2] = tested on: rat aortic rings; experiment: Endotoxin-induced hyporeactivity to vasoconstrictors in rat aortic rings; assay type: cell-based; conditions: endotoxin 0.3 μg/ml, compound 100 μM and 200 μM
Description: Incubation of rat aortic rings with endotoxin (0.3 μg/ml) led to the development of hyporeactivity to vasoconstrictors.

[3] = In vivo study: serum dimethylarginine levels after i.v. bolus; set-up: species or system Male Wistar rats; conditions: 4 hours after 60 mg/kg i.v. bolus, control 1.81 ± 0.23
Description: Male Wistar rats (250-300 g; Charles River, Margate, Kent, UK) were anaesthetised using Isoflurane. The jugular vein was cannulated. Animals were injected intravenously with a bolus dose of inhibitor (60 mg/kg) or saline. Anaesthesia was maintained for 4 hours at the end of which blood was obtained via cardiac puncture for the determination of serum dimethylarginine levels. [All animals received care in compliance with The British Home Office Regulations and Principles of Laboratory Animal Care. (Project licenses PPL/5344, PPL/4824, PPL 70/5580)]
SDMA is not a substrate for DDAH and the levels of SDMA would be expected to be the same of the treated and the control animals, and this was the case. Since there is a great deal of variability of the “normal” ADMA and SDMA level, it is useful to measure the ratio of ADMA and SDMA in each animal to provide a reliable indicator of the relative changes of these to substances.

[4] = tested on: rat aortic rings; experiment: NOx production from endotoxin-treated rat aortic rings in static culture; assay type: cell-based; conditions: endotoxin 10 μg/ml, compound 500 μM
Description: FIG. 1 is a graph showing the nitrate and nitrite (NOx) production from isolated rat aortic rings in static culture in the presence of either media alone (untreated); media plus 10 μg/ml LPS (LPS) and media plus 10 μg/ml LPS and 500 μM SR257 or SR291. n≧6; *p<0.0001 One Way ANOVA plus Bonferroni post hoc correction;
Effects of two compounds SR 291 [N^G-(2-methoxyethyl)-L-arginine methyl ester] and SR 257 [N^G-(2-methoxyethyl)-L-arginine]) have been tested in a series of models of endotoxin-induced vascular dysfunction. Treatment of rat aortic vascular rings in static culture with endotoxin (10 μg/ml) led to an increase in generation of nitric oxide (as measured by nitrite and nitrate). This increase in NO was prevented by treatment with 500 μM SR257 or SR291.

[5] = biological target: T1, DDAH (Rattus norvegicus, UniProt O08557); experiment: DDAH activity assay (rat kidney lysate, [14C]L-NMMA to [14C]citrulline); assay type: biochemical; conditions: 1 mM compound, [14C]L-NMMA 1 μmol/L, 1 h 37° C.
T1 construct: Rat kidney was homogenized in PBS; from tissue; host or cells: rat kidney homogenate, high-speed supernatant
Description: Rat kidney was homogenized in PBS containing PMSF 1 mM, leupeptin 5 μg/ml, pepstatin 5 μg/ml, chymostatin 5 μg/ml, and the lysate was centrifuged (4000 rpm. 20 min then supernatant further centrifuged for 40000 rpm, 30 min, 4° C.). The supernatants were analyzed for DDAH activity; [^14[…]) was added to the cell lysates (final volume 100 μl) and incubated for 1 h at 37° C. Dowex resin (0.5 ml) at neutral pH was immediately added to samples to terminate the reaction and bind unmetabolized L-NMMA. [^14C]Citrulline formation was determined by scintillation counting (Hewlett Packard).

[6] = tested on: RAW cells; experiment: Cell viability assay (MTT) in RAW cells
Description: RAW cells were treated with DDAH inhibitor compound (0.5 mM) in complete media for 24 h; cells were subsequently assessed for viability by MTT assay. Cell culture media was removed from cells and replaced with 200 μl complete media containing 3-[4,5-Dimethylthiazol-2-yl]-2,5-diphenyltetrazolium bromide (MTT 0.2 mg/ml) for 30 min at 37° C. MTT containing media was removed and 100 ul DMSO was added to solubilize cells; after shaking, plates were read at OD550 nm.

[7] = biological target: T2, iNOS (Mus musculus, UniProt P29477); experiment: iNOS activity Greiss assay in stimulated RAW cells; assay type: cell-based; conditions: Griess NOx, RAW cells stimulated 24 h with LPS/IFN and TNF, compound 0.5 mM, 550 nm; control 0.367 ± 0.021
T2 construct: endogenous in cells; host or cells: RAW cells stimulated with LPS/IFN and TNF
Description: RAW cells were stimulated for 24 h with LPS/IFN and TNF, in the presence of the DDAH inhibitor compounds (0.5 mM). Levels of NOx secreted into the media by the cells were determined by Griess assay: Greiss reagent [1:1 sulfanilamide ([…]) in ortho-phosphoric acid (50%) and N-(1-napthyl)ethylenediamine dihydrochloride (1%)] was added as 100 μl volume to 100 μl cell culture media and the plate was read at 550 nm and analysed in relation to sodium nitrite and nitrate standards.

[8] = tested on: zymosan-induced peritonitis; experiment: Zymosan-induced peritonitis, C57/Blk6 mice; assay type: in vivo
Description: (§1) The effects of a DDAH inhibitor on zymosan-induced peritonitis were tested in two different strains of mice. C57/Blk6 or TO mice, male 8-10 weeks were placed in a heat box for 10 mins at 38° C., and treated with 60 mg/kg of SR291 [NA-(2-methoxyethyl)-L-arginine methyl ester] i.v. 30 mins later they were given 1 mg of zymosan i.p. A second dose of SR291 (60 mg/kg) was administered 2 h later and after 4 h mice were anesthetised with isofluorane and blood withdrawn by cardiac puncture. Mice were sacrificed and had 2 mls of ice cold PBS injected into their peritoneal cavity, the cavity was then gently massaged and cut open, the peritoneal washout was harvested and put on ice. Blood was spun down at 400 g, 10 mins at 4° C. The cells were spun at 4000 rpm for 5 mins at 4° C. Plasma was removed from the blood and frozen at −80° C. The exudates from the washout were removed and frozen at −80° C., the cell pellet was resuspended in 1 ml ice cold PBS and were counted on a haemocytometer. The cells were spun as before, the supernatant discarded and the cells frozen at −80° C. Polymorphonuclear (PMN) cell infiltrate into the peritoneal cavity was used to measure inflammation. […] Taken off at 4 hrs. […] Taken off at 4 hrs.

[9] = tested on: zymosan-induced peritonitis; experiment: Zymosan-induced peritonitis, TO mice; assay type: in vivo; conditions: for cells 10^6/ml (individual animals 1-6): 60 mg/kg iv −30 min, +2 hrs, taken off at 4 hrs, listed as SR291, 60 mg/kg
Description: as §1

[10] = Endotoxin-induced fall in systemic blood pressure in anaesthetized rat; assay type: in vivo; conditions: endotoxin 40 mg/kg, infusion 30 mg/kg/hr
Description: Effects of intervention after 2-3 hours (when blood pressure had fallen to 80% of baseline pre LPS blood pressure) with 30 mg/kg/hr infusion of SR291; Injection of endotoxin (40 mg/kg) into rats caused a progressive fall in systemic BP. The decline was halted by infusion of 30 mg/kg/hr SR291.

T1 sequence (O08557 2-285 limits assumed): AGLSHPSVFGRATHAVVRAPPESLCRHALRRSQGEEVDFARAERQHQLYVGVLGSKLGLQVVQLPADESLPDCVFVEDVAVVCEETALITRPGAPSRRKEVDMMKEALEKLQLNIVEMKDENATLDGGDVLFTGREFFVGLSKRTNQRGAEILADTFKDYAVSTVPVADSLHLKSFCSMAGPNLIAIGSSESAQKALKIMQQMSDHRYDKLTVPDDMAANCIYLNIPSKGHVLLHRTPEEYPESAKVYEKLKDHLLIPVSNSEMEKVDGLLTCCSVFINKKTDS

Row | inhibition at 1000 µM [5] | OD units drug ± sd [7] | SMILES | % of control ± sd ([1]; 0.1 mM compound) | % of control ± sd ([1]; 1 mM compound) | endotoxin-induced hyporeactivity to vasoconstrictors [2] | ADMA:SDMA ± sd [3] | endotoxin-induced increase in NO (nitrite and nitrate) [4] | OD units drug ± sd ([6]; MTT, RAW cells, compound 0.5 mM, 24 h, OD550 nm, control 2.54 ± 0.26) | cells million/ml (peritoneal washout, individual animals 1-5) ([8]; C57 male 8-10 weeks, 60 mg/kg iv −30 min, taken off at 4 hrs, listed as SR291, 60 mg/kg) | cells 10^6/ml, mean ([8]; combination of two datasets for the C57 mice, saline 6.7455) | cells million/ml, mean ([8]; cumulative of Table 6 dataset, saline 9.1) | PMN infiltrate into the peritoneal cavity ([8]; three separate experiments, 8-12 mice each, C57/Blk6 or TO mice, 60 mg/kg i.v.) | cells 10^6/ml (individual animals 1-6) ([9]; TO mice male 8-10 weeks, first study) | cells 10^6/ml (individual animals 1-6) ([9]; TO mice, second study) | cells 10^6/ml, mean ([9]; cumulative of Table 9 dataset, saline 4.783333) | cells 10^6/ml, mean ([9]; cumulative of Table 11 dataset, saline 6.125) | cells 10^6/ml, mean ([9]; cumulative of the two datasets of Tables 9 and 11, saline 5.454167) | OD units drug ± sd [6] | progressive fall in systemic BP [10]
1 | 100% | 0.326 ± 0.014 OD units | COCCN=C(N)NCCCC(N)C(=O)O [Example 21, N^G-(2-methoxyethyl)-L-arginine] | 96.84 ± 30.49 [2] % of control | 84.81 ± 22.74 [4] % of control | reversed dose dependently | 3.50 ± 0.48 | prevented | 2.15 ± 0.13 OD units | – | – | – | – | – | – | – | – | – | – | –
2 | 83% | 0.325 ± 0.009 OD units | COCCN=C(N)NCCCC(N)C(=O)OC [Example 28, N^G-(2-Methoxyethyl)-L-arginine methyl ester] | 120.8 ± 17.80 [2] % of control | 112.5 ± 27.47 [4] % of control | reversed dose dependently | 2.73 ± 0.44 | prevented | – | 3 million/ml and 4 million/ml and 4.5 million/ml and 6.5 million/ml and 9 million/ml | 4.2 10^6/ml | 5.4 million/ml | significantly reduced | 3.05 10^6/ml and 3.35 10^6/ml and 3.2 10^6/ml and 1.4 10^6/ml and 3.9 10^6/ml and 4.3 10^6/ml | 4.3 10^6/ml (2×) and 4.6 10^6/ml and 4.85 10^6/ml and 5.2 10^6/ml and 3.9 10^6/ml | 3.2 10^6/ml | 4.525 10^6/ml | 3.8625 10^6/ml | 2.41 ± 0.10 OD units | halted
